According to a melting point compilation (Tetko et al.; mined from patent text by program, amines drawn as free bases though some values may be those of a salt):

SMILES	melting point [°C]
OCC12CCCN(CCC1)C2	64 to 65.5
Cn1cc(-c2cccc(C(F)(F)F)c2)c(=O)c(-c2ccc(Cl)cc2Cl)c1	139 to 142
CC(C)N1OCCC(C(O)c2cc(C(C)(C)C)c(O)c(C(C)(C)C)c2)C1=O (stereo not drawn)	150 to 153
Cc1ccc(C(=O)NC(NC(=S)Nc2cccc(F)c2)C(F)(F)F)cc1 (stereo not drawn)	205 to 206
CC(=O)NC(Cc1ccccc1)C(O)C(Cc1ccccc1)NC(C)=O (stereo not drawn)	125 to 126
OC(CCN1CCC(c2ccc(F)cc2)CC1)c1ccc(Cc2ccc(Cl)cc2)cc1 (stereo not drawn)	94 to 95
O=c1[nH]cnc2ccc(-c3cccnc3)cc12	240 to 246
Cn1c(-c2ccc(C=Cc3ccc(-c4ccccc4)cc3)cc2)cc2ccccc21	254
CC(c1ccc(-c2ccccc2)c(F)c1)c1csc(NCCc2ccccc2)n1 (stereo not drawn)	74.5 to 75.5
O=[N+]([O-])c1ccc(C(Cl)=NNc2ccccc2)cc1	157 to 158
CC(=O)N(N(CCCl)S(C)(=O)=O)S(C)(=O)=O	148 to 149
CCOc1cn(C)cc(-c2cccc(C(F)(F)F)c2)c1=O	131 to 133
COc1ccc(/C=C/C(=O)/C=C/c2ccc(OC(F)(F)F)cc2)cc1	105 to 107
COP(=O)(OC)C(=O)Cc1ccccc1	117 to 122
CCOC(=O)C1=Cc2cc(C)ccc2SC1C(F)(F)F (stereo not drawn)	93.1 to 94.7
O=S(=O)(c1ccc2ccccc2c1)N1CCCC1c1ccc(F)cc1 (racemic)	166
N#CSCC(Cl)=C(Cl)CSC#N	166 to 169
CC1=C(c2ccccc2)C(=O)N(C(C)(C)c2cc(Cl)c(F)c(Cl)c2)CC1	154 to 159
COc1ccc(CNC(=O)n2cc(F)c(=O)[nH]c2=O)c(OC)c1OC	159
O=c1c(-c2ccc(Cl)cc2)nc2ccccc2n1CC(F)F	133 to 136
O=C(O)c1cnn(CCCCN2CCN(c3ncccn3)CC2)c1	104 to 105
COc1ccc(CN2C(=O)C(C)(c3cc(C(=O)N4CCCCC4C(=O)N(C)CC(F)(F)F)ccc3Cl)c3cc(Cl)ccc32)c(OC)c1 (stereo not drawn)	99
N#Cc1ccc2c(c1)c(-c1ccccc1)nn2CCCBr	100 to 102

SMILES	melting point [°C]
CCCc1c(OCCCCCCCCCCC(=O)O)ccc(C(C)=O)c1O	57 to 58
COC(=O)c1nc(-c2cc([N+](=O)[O-])c(Cl)cc2F)cc(N)c1Cl	161 to 163
Cc1ccc(C(=O)NC(NC(=NC#N)Nc2ccc(Cl)nc2)C(C)(C)C)cc1 (stereo not drawn)	194 to 196
Cc1cc(C)cc(COC2CCC(N)(c3ccccc3)C(OCc3cc(C)cc(C)c3)C2)c1 (stereo not drawn)	103 to 105
COc1cc(C=C2C(=O)CCc3c2ccc2c3OCO2)c([N+](=O)[O-])cc1OC	66 to 68
O=C1N(Cc2ccc(Cl)s2)c2ccccc2C12COc1cc3c(cc12)OCO3 (stereo not drawn)	145 to 146
Nc1nc(N)nc(-c2ccc(C#Cc3ccccc3)cc2)n1	248 to 249
Cc1nc2nccc(-c3cccs3)n2n1	184 to 185
Cc1onc(NS(=O)(=O)c2ccccc2)c1Br	128 to 130
C[C@H](N)Cn1ncc2ccc3oc(C(=O)NCCCN4CCCC4=O)cc3c21	82
CCCCCCC1c2cc(CC#N)ccc2-c2ccc(CC#N)cc21	130 to 131
CCC(CC)O[C@@H]1C=C(C(=O)O)C[C@H](CC(O)CN=[N+]=[N-])[C@H]1NC(C)=O (stereo partly drawn)	126 to 127
O=C(Nc1ccccc1)Nc1cnc(-c2ccccc2)nc1-c1ccccc1Cl	195 to 198
CC(c1ccc2c(c1)Cc1ccccc1-2)n1ccnn1 (stereo not drawn)	160 to 162
CC(C)=C1C(=O)N(c2ccc(N)cc2)C(=O)/C1=C(\C)c1cc(-c2ccccc2)sc1C	193 to 195
COc1ccccc1N1CCN(Cc2ccccc2C(c2ccc(O)cc2)c2ccc(O)cc2)CC1	175 to 178
Clc1ccc(C2NCCc3c2[nH]c2ccccc32)cc1 (stereo not drawn)	161
CC(=CCO)COc1ccc([N+](=O)[O-])cc1	41 to 43
COc1cc(NC(=O)c2ccccc2Cl)ccc1C(=O)N1CCCC(OCCNS(=O)(=O)C(F)(F)F)c2cc(Cl)ccc21 (stereo not drawn)	140 to 142
O=C(Oc1cc(/C=C/c2ccc(O)cc2)cc(OC(=O)c2cc(O)c(O)c(O)c2)c1)c1cc(O)c(O)c(O)c1	210 to 212
CNc1nc(Br)cn2c(Br)cnc12	229
CN(C)CCSc1cc(NC(=O)OC(C)(C)C)c([N+](=O)[O-])cc1I	144
OCC1OC(n2cnc3c(NNC4COc5c(Cl)cccc5C4)ncnc32)C(O)C1O (stereo not drawn)	137 to 139

SMILES	melting point [°C]
COC(=O)CC[C@@H](NC(=O)[C@H](COCc1ccccc1)NC(=O)OC(C)(C)C)C(N)=O	103 to 104
COc1ccnc(CCc2nc3cc(-c4ccc(S(=O)(=O)Nc5ccc(N(C)C)cc5)cc4)cnc3[nH]2)c1	221 to 222
COc1c(S(=O)(=O)Cl)ccc(Cl)c1C	88 to 92
c1ccc(C(c2ccnc3ccccc23)n2ccnc2)cc1 (stereo not drawn)	143
COc1ccc(C(=O)Cc2ccc(Br)cc2)cc1	142
N#CCOc1cc(O)ccc1-c1nc2nccnc2[nH]1	232 to 233
COc1ccc(/C=C/S(=O)(=O)CS(=O)(=O)/C=C/c2ccc(O)c(OC)c2)cc1N	148 to 150
NS(=O)(=O)c1ccc(-c2cscc2-c2ccc(F)cc2)cc1	194 to 195
O=C(O)[C@H]1C[C@@H](C(=O)O)c2c(Cl)cc(Cl)cc2N1 (relative stereo)	225 to 227
CC(=O)OCC(=O)C1(O)CCC2C3CCC4=CC(=O)C=CC4(C)C3C(O[Si](C)(C)C)CC21C (stereo not drawn)	180 to 184
CCCCC(NC(=O)C(CS)C(C)c1ccccc1)C(=O)O (stereo not drawn)	55
CC(C)OC(=O)c1cnn(-c2ccccn2)c1S(N)(=O)=O	123 to 124
COc1ccc(C2CSc3ccccc3N(CCO)C2=O)cc1 (stereo not drawn)	133
CCOCn1c(-c2ccc(Cl)cc2)c(C#N)c(Cl)c1C(F)(F)F	104
CCOc1cc2c(cc1OC)C(c1ccc(C(=O)N(C(C)C)C(C)C)cc1)=N[C@@H]1CCSC[C@H]21	84 to 89
CCCC(C)(C)NC(=O)n1nc(C)n(N)c1=O	110
O=C(N[C@@H](Cc1ccc(OCc2ccccc2)cc1)C(=O)O)c1cn2cc(/C=C/c3ccc(Cl)cc3)ccc2n1	267 to 270
O=S1(=O)C=C(Br)C=C1CO	56 to 57
O=c1[nH][nH]c(C(F)(F)F)c1Cc1ccc(Br)cc1	135 to 136
CCOC(=O)NC1(c2ccc(C(C)C)cc2OC)C(=O)c2ccccc2C1=O	149 to 150
C[C@H]1c2cc(F)ccc2-c2ccccc2N1S(=O)(=O)c1ccc(O)cc1	193

Other lines, results leading:

melting point [°C]	SMILES
102 to 104	COc1ncc(CN2C(=O)C3(COc4cc5c(cc43)OCCO5)c3ccccc32)cn1 (stereo not drawn)
195	COc1ccc(C(=O)Nc2nc3ccc(N(C)C)cc3c(NCc3ccco3)c2C#N)cc1
226	O=C(N[C@H]1CC[C@H](CCN2CCN(c3nccc4c3CCO4)CC2)CC1)c1ccc(Cl)cc1
120 to 121	CC1(C)CN(C2CCN(c3ccc(F)c(Cl)c3)C2=O)C1=O (stereo not drawn)
208 to 210	CCOc1ccc(N)cc1-c1nc2cccnc2c(=O)[nH]1
90 to 92	O=[N+]([O-])c1ccccc1N1CCN(Cc2ccccc2)CCN1
118 to 120	Cc1ccc(C(=O)Nc2cn(C3CCCCO3)nc2C(=O)NCCC#N)cn1 (stereo not drawn)
176 to 178	Cc1ccc(NC(=O)CN2CCNCC2)cc1Nc1ncc(-c2cccnc2)o1
207 to 208	O=C1CCCc2c1c1cc(Cl)ccc1n2Cc1ccc(F)cc1
243 to 245	Cc1ccc(-c2nc3sc4ccccc4n3c2CC(N)=O)s1
72 to 76	O=C(Nc1ccc(-n2nc(C(F)(F)F)cc2C2CC2)c(F)c1)C1(c2ccccc2)CCC1
190 to 192	O=c1cc(-c2ccncc2)nc2n1CCC(c1ccncc1)N2CC(O)c1cccc(Br)c1 (stereo not drawn)
118 to 120	CC(C)N1Cc2cc(S(C)(=O)=O)ccc2N(CCN2CC=C(c3c[nH]c4cc(F)ccc34)CC2)S1(=O)=O
220	CC(=O)Oc1ccc(C(=O)Nc2ccc3ccc(Cl)nc3n2)cc1
> 300	CCOC(=O)c1cnc2ccc3nc(Cl)sc3c2c1O
53 to 58	CCc1ccc(C2=NC(C)(C(C)C)C(=O)N2CC=CC(=O)O)nc1 (stereo not drawn)

melting point [°C]	SMILES
136 to 137	CC(C)(C)OC(=O)CCN1CCN(CC2CN(c3ccc(C(=N)NC(=O)c4ccccc4)cc3)C(=O)O2)CC1 (stereo not drawn)
174 to 175	Cc1c(CC(=O)N(C)O)c2cc(OCc3nc4ccccc4s3)ccc2n1Cc1ccc(Cl)cc1
52 to 55	CCN1CCN(C)C[C@@H](NC(=O)c2cc(Br)c(NC)nc2OC)C1
210 to 212	CCc1nc2c(N)nc3cc(CCC(=O)N4CCSC4)ccc3c2n1CC(C)(C)O
191 to 193	Cc1ccc2c(c1)Oc1ncc(N)cc1C(=O)N2C
80.7	CCOCCn1c(CN2CCN(CC#N)CC2)nc2cccnc21
245 to 247	CC1COCc2nc3c(N)nc4cc(CCC(=O)N5CCOCC5)ccc4c3n21 (stereo not drawn)
208 to 211	Cc1cc(O)nn1-c1ccc(Cl)c(Cl)c1
100	COc1ccccc1N1CCN(CCCOC(=O)Cc2csc(NC(=O)c3ccc(F)cc3)n2)CC1
164	CC(C)(C)c1ccccc1N1CCN(C(=O)C2CCC(=O)N2Cc2ccccc2)CC1 (stereo not drawn)
147 to 148	Cc1cc2ccc(Cl)c(C)c2nc1-n1cncn1
203 to 205	O=C1c2cc3nnn(Cc4cccnc4)c(=O)c3cc2OC2CCCN12 (stereo not drawn)
154 to 156	COC(=O)c1nc(-c2ccc(C)c(C)c2)cc(N)c1Cl
177	Nc1cc2c(c3ccccc13)C(CCl)CN2C(=O)C(F)(F)F (stereo not drawn)
102 to 104	CC1CN(c2ccc(N3CC(CNC(=O)CC#N)OC3=O)cc2F)CCC1=CC#N (stereo not drawn)
